Tested on: human colon tumor cell line DLD-1
Assay: cells
Type: cell-based
Conditions: for Percent Growth (Mean ± SEM, n = 2): 72 h exposure
Method: A colon tumor assay was used to detect changes in cell proliferation based on the ability of viable cells to cause alamarBlue to change from its oxidized state (non-fluorescent, blue) to a reduced (fluorescent, red) form. With the results obtained from the alamarBlue reaction, cell proliferation can be quantified and metabolic activity of viable cells can be examined. MDA-1 (a processed Morinda citrifolia product) was tested for its effect upon the proliferation of human colon tumor cell line (or DLD-1), and at five final assay concentrations from 10% to […] through 2-fold serial dilutions.
The MDA-1 test compound, or Morinda citrifolia fruit juice, was used for in vitro anti-tumor studies. The test compound was in liquid form and diluted with phosphate-buffered saline to obtain initial working solutions. […]
The human colon tumor cell line of DLD-1 was obtained from American Type Culture Collection (ATCC CCL-221). The culture was used with RPMI 1640, 90%; Fetal Bovine Serum, 10% and supplemented with 1% Antibiotic-Antimycotic and the cells were incubated in an atmosphere containing 5% CO2 at 37 degrees Celsius.
In the evaluation of anti-proliferation for test substances, […].
Mean Ftime0=The average of two measured fluorescent intensities of reduced alamarBlue at the time just before exposure of cells to the test substance.
Mean Ftest=The average of two measured fluorescent intensities of alamarBlue after seventy-two hour exposure of cells to the test substance.
Mean Fctrl=The average of two measured fluorescent intensities of alamarBlue after seventy-two hour incubation without the test substance.
Mean Fblank=The average of two measured fluorescent intensities of alamarBlue in medium without cells after seventy-two hour incubation.
A decrease of fifty percent or more (≧50%) in fluorescent intensity relative to vehicle-treated control indicated significant cell growth inhibition, cytostatic or cytotoxic activity, and a semi-quantitative IC50, TGI and LC50 were then determined by nonlinear regression using GraphPad Prism (GraphPad Software, USA).
TGI (Total Growth Inhibition): Test compound concentration where the number or mass of treated cells at the end of experiment was equal to that at time0.
A semi-quantitative determination of IC50, TGI and LC50 was carried out by nonlinear regression analysis using GraphPad Prism (GraphPad Software, USA).

With `CO[C@@]12[C@H](COC(N)=O)C3=C(C(=O)C(C)=C(N)C3=O)N1C[C@@H]1N[C@@H]12` [Mitomycin] the “activity of standard reference agent (growth inhibition)” value (DLD-1, at <10 μM) was “Significant activity”, the “Percent Growth (Mean ± SEM, n = 2)” value (DLD-1, concentration 0.001 μM) was 95 ± 5 and the “Percent Growth (Mean ± SEM, n = 2)” value (DLD-1, concentration 0.01 μM) was 103 ± 6. For the same molecule, the “Percent Growth (Mean ± SEM, n = 2)” value (DLD-1, concentration 0.1 μM) was 60 ± 7, the “Percent Growth (Mean ± SEM, n = 2)” value (DLD-1, concentration 1 μM) was 35 ± 4 and the “Percent Growth (Mean ± SEM, n = 2)” value (DLD-1, concentration 10 μM) was −50 ± 8. The “Estimated TGI (Total Growth Inhibition)” value (DLD-1, semi-quantitative, nonlinear regression) was 2200 nM and the IC50 (Homo sapiens, DLD-1, semi-quantitative, nonlinear regression, read-out: Estimated IC50 (50% Inhibition Concentration)) was 380 nM.
